Experimental data reported in ChEMBL document CHEMBL1201862, “PubChem BioAssay data set” (2004).
Activity calls are given as the source filed them.

Assays:
[1] = target: Paired box protein Pax-8 (Homo sapiens, UniProt Q06710); assay: inhibitors of PAX8-driven TPO luciferase reporter, dose response, RMG-I cells, cherry-pick (AID 687027); format: functional, cell-based;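 also: luciferase reporter driven by Pax8 target thyroperoxidase promoter measured by SteadyGlo luminescence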
[2] = NIH:OVCAR-3 ovarian cancer cell cytotoxicity, dose response, PAX8 inhibitor project, plate reader, dry powder samples (AID 743044); format: functional, cell-based
[3] = cytotoxicity in OVCAR8 ovarian cancer cells, dose response, PAX8 project, cell-based, plate reader, dry powder samples (AID 743197); format: functional; conditions: OVCAR-8
[4] = tested on: P388/ADR; assay: cells; format: functional; conditions: Mus musculus
[5] = tested on: SN12K1; assay: cells; format: functional; conditions: Homo sapiens
[6] = tested on: P388; assay: cells; format: functional; conditions: Mus musculus
[7] = NIH-3T3 fibroblast cytotoxicity, dose response, cytotoxicity control, cell-based, fluorescence, Alamar Blue, secondary assay (AID 2327); format: functional;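 also: NIH-3T3 mouse fibroblasts cultured with fluconazole at 8 µg/mL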
[8] = target: T1, Heat shock factor protein 1 (Mus musculus, UniProt P38532); assay: inhibition of MG132-induced HSE-luciferase signal, confirmation, cell-based, NIH3T3, luminescence, dose retest (AID 2382); format: functional;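 also: NIH3T3 fibroblasts with HSF1-driven luciferase reporter stressed by proteasome inhibitor MG132; luminescence from HSF1-driven luciferase expression after 8 hours of MG132 stress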
T1 sequence (P38532 whole entry): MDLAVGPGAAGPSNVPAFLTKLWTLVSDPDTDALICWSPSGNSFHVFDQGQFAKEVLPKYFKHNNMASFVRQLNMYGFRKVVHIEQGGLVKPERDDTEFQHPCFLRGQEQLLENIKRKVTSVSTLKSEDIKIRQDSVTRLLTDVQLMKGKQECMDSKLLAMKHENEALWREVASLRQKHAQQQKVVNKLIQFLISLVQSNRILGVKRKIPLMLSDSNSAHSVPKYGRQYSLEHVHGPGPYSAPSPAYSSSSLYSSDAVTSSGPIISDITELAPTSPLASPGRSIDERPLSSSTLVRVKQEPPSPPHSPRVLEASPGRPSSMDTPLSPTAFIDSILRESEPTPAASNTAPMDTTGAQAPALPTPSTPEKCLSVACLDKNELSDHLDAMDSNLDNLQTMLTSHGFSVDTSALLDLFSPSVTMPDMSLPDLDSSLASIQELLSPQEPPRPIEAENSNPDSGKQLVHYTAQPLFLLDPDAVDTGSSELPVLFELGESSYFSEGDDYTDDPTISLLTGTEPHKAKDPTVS

[9] = C. albicans growth with fluconazole, confirmation, fluorescence, retest (AID 2467); format: functional, cell-based
[10] = inhibitors of intracellular T. cruzi replication, confirmation, NIH3T3 host cells, beta-gal luminescence (AID 2044); format: functional, cell-based;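 also: intracellular parasites grown in NIH/3T3 mouse fibroblasts as host cells; luminescent beta-galactosidase reporter signal from transgenic T. cruzi replicating inside host cells; inhibitors lower the luminescence signal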
[11] = cytotoxicity toward NIH3T3 fibroblasts, dose response, counter-screen, cell-based, ATP luminescence, mouse fibroblasts (AID 2010); format: functional;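 also: cells exposed to compound for about 90 hours before reading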
[12] = target: T2, Replicative DNA helicase DnaB (Mycobacterium tuberculosis, UniProt P9WMR3); assay: DnaB intein splicing inhibitors, dose response, biochemical, cell-free fluorescence (AID 449749); format: functional
T2 sequence (P9WMR3 whole entry): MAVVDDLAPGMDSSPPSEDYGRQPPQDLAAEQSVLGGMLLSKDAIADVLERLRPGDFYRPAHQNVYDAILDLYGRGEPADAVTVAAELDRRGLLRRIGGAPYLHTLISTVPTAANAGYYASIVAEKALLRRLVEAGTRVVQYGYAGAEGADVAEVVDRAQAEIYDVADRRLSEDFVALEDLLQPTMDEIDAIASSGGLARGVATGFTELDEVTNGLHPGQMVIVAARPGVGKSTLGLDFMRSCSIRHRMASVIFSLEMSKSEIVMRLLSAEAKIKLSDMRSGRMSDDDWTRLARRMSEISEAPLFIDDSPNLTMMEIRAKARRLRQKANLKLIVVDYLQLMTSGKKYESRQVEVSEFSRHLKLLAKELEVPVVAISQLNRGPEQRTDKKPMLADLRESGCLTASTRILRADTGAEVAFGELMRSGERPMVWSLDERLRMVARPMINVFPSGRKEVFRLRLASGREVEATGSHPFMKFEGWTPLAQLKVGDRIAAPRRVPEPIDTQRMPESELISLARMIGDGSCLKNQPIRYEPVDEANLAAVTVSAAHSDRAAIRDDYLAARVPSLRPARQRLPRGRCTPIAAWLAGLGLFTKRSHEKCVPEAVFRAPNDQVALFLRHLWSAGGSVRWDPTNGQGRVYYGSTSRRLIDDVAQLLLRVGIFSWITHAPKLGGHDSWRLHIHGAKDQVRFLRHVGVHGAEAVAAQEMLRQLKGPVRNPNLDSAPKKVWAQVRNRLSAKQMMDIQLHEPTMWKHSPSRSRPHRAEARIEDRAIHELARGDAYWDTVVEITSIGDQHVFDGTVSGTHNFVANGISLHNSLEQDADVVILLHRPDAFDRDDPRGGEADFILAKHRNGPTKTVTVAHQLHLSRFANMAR

[13] = target: T3, Protein RecA (Mycobacterium tuberculosis, UniProt P9WHJ3); assay: Fluorescence Cell-Free Homogeneous Dose Retest to Identify Inhibitors of RecA-Intein Splicing Activity. [Related pubchem assays (depositor defined):AID2097, AID2223, AID489010, AID492950]; format: functional
T3 sequence (P9WHJ3 whole entry): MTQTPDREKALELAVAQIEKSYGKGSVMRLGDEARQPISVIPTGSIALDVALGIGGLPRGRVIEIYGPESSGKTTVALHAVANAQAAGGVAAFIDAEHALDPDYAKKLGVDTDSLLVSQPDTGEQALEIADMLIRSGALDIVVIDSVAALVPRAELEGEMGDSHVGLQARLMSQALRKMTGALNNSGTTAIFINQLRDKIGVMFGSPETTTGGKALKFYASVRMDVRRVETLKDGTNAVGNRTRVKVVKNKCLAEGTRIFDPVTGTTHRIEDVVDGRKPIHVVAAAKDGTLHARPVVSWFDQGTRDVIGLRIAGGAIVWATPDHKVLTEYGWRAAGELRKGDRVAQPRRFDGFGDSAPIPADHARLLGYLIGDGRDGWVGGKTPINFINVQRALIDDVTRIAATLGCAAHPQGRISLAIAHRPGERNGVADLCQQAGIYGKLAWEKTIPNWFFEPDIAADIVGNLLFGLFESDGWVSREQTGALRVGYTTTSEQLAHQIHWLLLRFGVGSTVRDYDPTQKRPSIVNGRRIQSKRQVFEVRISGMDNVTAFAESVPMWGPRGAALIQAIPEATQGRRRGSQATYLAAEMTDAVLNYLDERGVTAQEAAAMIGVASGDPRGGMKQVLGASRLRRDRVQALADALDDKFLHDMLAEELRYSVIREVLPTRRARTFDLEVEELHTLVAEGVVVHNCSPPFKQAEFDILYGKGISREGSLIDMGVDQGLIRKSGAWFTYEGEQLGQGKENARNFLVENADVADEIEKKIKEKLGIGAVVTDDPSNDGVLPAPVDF

[14] = Fluorescence-based cell-based high throughput dose response assay for inhibitors of the interaction of nucleotide-binding oligomerization domain containing 2 (NOD2) and the receptor-interacting serine-threonine kinase 2 (RIPK2).; format: functional; conditions: Homo sapiens
[15] = Luminescence Cell-Based Dose Confirmation HTS to Identify Activators of 5'UTR Stem-Loop Driven Alpha-Synuclein mRNA Translation in H4 Neuroglioblastoma Cells. [Related pubchem assays: 1829 (Project Summary), 1814 (Primary HTS)]; format: functional
[16] = Luminescence Cell-Based Dose Response HTS to Identify Activators of Luciferase Translation or Activity in H4 […] Cells. [Related pubchem assays: 1829 (Project Summary), 1814 (Primary HTS)]; format: functional
[17] = tested on: H4; assay: Luminescence Cell-Based Dose Response HTS to Identify Activators of 5'UTR Stem-Loop Driven Prion Protein mRNA Translation in H4 Neuroglioblastoma Cells. [Related pubchem assays: 1829 (Project Summary), 1814 (Primary HTS)]; format: functional; conditions: Homo sapiens
[18] = target: T4, Adenosylmethionine-8-amino-7-oxononanoate aminotransferase (Mycobacterium tuberculosis, UniProt P9WQ81); assay: Mycobacterium tuberculosis BioA enzyme inhibitor Measured in Biochemical System Using Plate Reader - 2163-02_Inhibitor_Dose_CherryPick_Activity.; format: functional, Mycobacterium tuberculosis UT205
T4 sequence (P9WQ81 whole entry): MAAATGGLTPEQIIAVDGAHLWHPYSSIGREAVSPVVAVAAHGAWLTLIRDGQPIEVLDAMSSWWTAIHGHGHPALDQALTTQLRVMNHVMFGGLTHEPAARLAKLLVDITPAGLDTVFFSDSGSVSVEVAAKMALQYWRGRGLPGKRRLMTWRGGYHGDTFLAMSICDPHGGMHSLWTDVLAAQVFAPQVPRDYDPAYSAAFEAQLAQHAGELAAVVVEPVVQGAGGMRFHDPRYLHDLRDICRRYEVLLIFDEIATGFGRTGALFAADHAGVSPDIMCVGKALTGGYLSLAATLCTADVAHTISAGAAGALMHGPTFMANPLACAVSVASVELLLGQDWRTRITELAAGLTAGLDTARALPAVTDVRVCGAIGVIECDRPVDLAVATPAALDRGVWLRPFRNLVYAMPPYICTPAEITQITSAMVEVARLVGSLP

[19] = target: Cytochrome P450 2C9 (Homo sapiens, UniProt P11712)
[20] = A2780 ovarian cancer cell cytotoxicity, dose response, cytotoxicity control, plate reader, dry powder samples (AID 743046); format: functional, cell-based
[21] = HepG2 cell cytotoxicity, dose response, cytotoxicity control, plate reader, cherry-pick, antagonist series (AID 743416); format: functional, cell-based
[22] = LGR2 antagonists, dose response, cell-based, HEK293, CRE-luciferase reporter, cherry pick, set 2 (AID 743343); format: functional;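 also: transfected cells were stimulated with diluted bursicon conditioned medium after compound addition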
[23] = MC4R antagonists, dose response, counter-screen for LGR2 antagonist project, cell-based, plate reader, cherry pick (AID 743444); format: functional;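 also: transfected HEK 293 cells stimulated with alpha-MSH peptide; potency of inhibitors of the alpha-MSH evoked signal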
[24] = HeLa cell cytotoxicity, dose response, cytotoxicity control for MgcRacGAP inhibitor project (AID 624300); format: functional
[25] = target: T5, Rac GTPase-activating protein 1 (Homo sapiens, UniProt Q9H0H5); assay: MgcRacGAP GTPase-activating activity inhibitors, confirmation, biochemical, ADP Hunter fluorescence, primary and confirmatory (AID 624330); format: functional
T5 sequence (Q9H0H5 whole entry): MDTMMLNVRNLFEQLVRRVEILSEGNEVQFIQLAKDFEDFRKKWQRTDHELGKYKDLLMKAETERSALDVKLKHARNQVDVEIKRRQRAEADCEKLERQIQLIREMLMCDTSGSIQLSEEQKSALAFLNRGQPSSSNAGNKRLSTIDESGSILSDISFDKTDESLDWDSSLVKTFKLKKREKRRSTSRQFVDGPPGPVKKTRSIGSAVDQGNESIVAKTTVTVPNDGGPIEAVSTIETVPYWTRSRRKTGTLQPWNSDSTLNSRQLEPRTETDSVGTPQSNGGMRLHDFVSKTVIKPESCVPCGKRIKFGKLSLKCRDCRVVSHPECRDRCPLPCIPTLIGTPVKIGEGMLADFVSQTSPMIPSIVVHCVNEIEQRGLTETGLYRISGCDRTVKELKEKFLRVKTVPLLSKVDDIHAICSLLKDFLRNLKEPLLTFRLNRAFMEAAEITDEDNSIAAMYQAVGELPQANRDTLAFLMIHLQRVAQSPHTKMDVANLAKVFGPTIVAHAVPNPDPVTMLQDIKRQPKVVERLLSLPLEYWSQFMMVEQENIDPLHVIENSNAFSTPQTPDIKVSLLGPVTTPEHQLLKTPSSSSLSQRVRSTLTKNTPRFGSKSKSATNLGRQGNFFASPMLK

Sequence of Paired box protein Pax-8 (Q06710 whole entry): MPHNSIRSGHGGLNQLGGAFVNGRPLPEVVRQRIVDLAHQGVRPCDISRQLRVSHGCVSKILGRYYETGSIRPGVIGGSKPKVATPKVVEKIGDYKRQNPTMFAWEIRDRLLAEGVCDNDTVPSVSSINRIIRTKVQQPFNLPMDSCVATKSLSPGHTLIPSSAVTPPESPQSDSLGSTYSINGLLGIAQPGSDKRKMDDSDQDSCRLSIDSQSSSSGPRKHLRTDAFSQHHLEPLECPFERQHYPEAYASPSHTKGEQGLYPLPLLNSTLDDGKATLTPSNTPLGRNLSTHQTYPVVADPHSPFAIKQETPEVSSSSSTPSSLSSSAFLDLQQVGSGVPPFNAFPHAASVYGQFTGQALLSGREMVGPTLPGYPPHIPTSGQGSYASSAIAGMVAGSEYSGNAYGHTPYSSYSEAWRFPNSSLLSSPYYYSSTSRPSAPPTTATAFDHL
Sequence of Cytochrome P450 2C9 (P11712 whole entry): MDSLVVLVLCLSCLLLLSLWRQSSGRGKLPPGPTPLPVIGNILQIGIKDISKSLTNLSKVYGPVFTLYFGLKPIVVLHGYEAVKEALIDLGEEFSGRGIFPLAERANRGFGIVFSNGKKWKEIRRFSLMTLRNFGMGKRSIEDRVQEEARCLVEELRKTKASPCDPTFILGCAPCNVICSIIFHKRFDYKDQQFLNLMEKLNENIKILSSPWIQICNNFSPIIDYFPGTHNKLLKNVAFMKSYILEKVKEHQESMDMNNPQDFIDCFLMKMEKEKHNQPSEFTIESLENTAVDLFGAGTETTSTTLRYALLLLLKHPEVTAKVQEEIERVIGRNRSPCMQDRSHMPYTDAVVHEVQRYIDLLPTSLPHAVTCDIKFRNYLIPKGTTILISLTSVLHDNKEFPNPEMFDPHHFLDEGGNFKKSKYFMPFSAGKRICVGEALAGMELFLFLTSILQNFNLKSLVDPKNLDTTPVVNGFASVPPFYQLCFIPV

C[C@@H]1CCCCO[C@@H](CN(C)C(=O)c2ccccc2)[C@H](C)CN([C@H](C)CO)C(=O)c2cc(NC(=O)Nc3ccc(C(F)(F)F)cc3)ccc2O1
AC50 [1]: 3.53 µM (active) | AC50 [2]: 36.5 µM (active) | AC50 [3]: > 70 µM (inactive)

C[C@@H]1CN([C@H](C)CO)C(=O)c2cc(NC(=O)CCCCCC(=O)Nc3ccccc3N)ccc2O[C@@H](C)CCCCO[C@H]1CN(C)Cc1ccc(Cl)c(Cl)c1
AC50 [1]: 12.2 µM (active) | AC50 [3]: 65.4 µM (active)

CC(=O)OCc1cc(=O)n(C)c2c3c4c(cc12)c(C)cc(=O)n4CO3
GI50 [4]: 531 nM (active) | GI50 [5]: 843 nM (active) | GI50 [6]: 344 nM (active)

Cn1c(/C=C/CO)c(CO)c2c1C(=O)C=C(N1CC1)C2=O [APAZIQUONE]
GI50 [4]: 506 nM (active) | GI50 [5]: 10.2 nM (active) | GI50 [6]: 940 nM (active)

Cc1ccc(-n2ncc(Br)c(Br)c2=O)cc1
EC50 [7]: 2.27 µM (inconclusive) | EC50 [8]: 5.57 µM (active) | EC50 [9]: 443 nM (active) | EC50 [10]: 2.23 µM (active) | EC50 [11]: 1.97 µM (active) | AC50 [12]: 20.9 µM (active) | EC50 [13]: 4.75 µM (active) | IC50 [14]: 3.25 µM (active)

C#CCSc1nnc(-c2sc(-c3ccccc3)nc2C)n1C
EC50 [15]: > 120 µM (not active) | EC50 [16]: 48.9 µM (active) | EC50 [17]: 16.9 µM (active) | AC50 [18]: 2880 nM (active) | AC50 [19]: 17.8 µM (inconclusive)

Cc1ccc(-c2ccc([C@H]3[C@@H](CO)N4CCCCN(C(=O)Nc5cccc(F)c5)C[C@H]34)cc2)cc1
AC50 [1]: 21.7 µM (active) | AC50 [20]: 39.1 µM (active) | AC50 [2]: 37.5 µM (active)

Nc1ccn(C2OC(CO)C(O)C2O)c(=O)n1 (stereo unspecified)
GI50 [4]: 50 nM (active) | GI50 [5]: 70 nM (active) | GI50 [6]: 50 nM (active)

Cc1ccc(-c2csc(Nc3ccccn3)n2)cc1
AC50 [21]: > 52 µM (inactive) | AC50 [22]: 2.74 µM (active) | AC50 [23]: 3.3 µM (active)

CCCCC1(C2c3ccccc3Oc3ccccc32)C(=O)N(c2ccccc2)N(c2ccccc2)C1=O
GI50 [4]: 17600 nM (inactive) | GI50 [5]: 34800 nM (inactive) | GI50 [6]: 9820 nM (inactive)

CC(=O)N1CCN(c2ccc(Nc3ncnc4c3oc3ccccc34)cc2)CC1
CC50 [24]: 58.3 µM (active) | IC50 [25]: 46 µM (active)

CCCc1cc(S)n2c(nc3ccccc32)c1C#N
CC50 [24]: 100 µM (active) | IC50 [25]: 52.2 µM (active)

NCCCNCCSP(=O)(O)O [AMIFOSTINE]
GI50 [4]: 84300 nM (inactive) | GI50 [5]: > 667000 nM (inactive) | GI50 [6]: 54600 nM (inactive)

CSc1ccc(S(=O)(=O)N2CCC(C(=O)Nc3cccnc3)CC2)cc1
AC50 [18]: 807 nM (active)

Cc1nc2nc(SCC(=O)NCc3ccco3)nn2c(C)c1Cc1ccccc1
AC50 [18]: 704 nM (active)

CN1c2ccc(-c3cccc(F)c3)cc2[C@H]2[C@H](CCN2C(=O)C2CCOCC2)[C@H]1CO
AC50 [18]: 108 nM (active)
